Read-outs that look alike come from different tables or passages of the source.
Test system: NUP-MDSC
Assay: Secondary mouse MDSC screen (dose-dependent; IFNγ secretion and T cell proliferation)
Assay type: cell-based
Conditions: for EC50: Mus musculus, NUP-MDSC/CD8+ T cell coculture; for activity in the NUP-MDSC assay (proliferation and INFγ secretion of mouse CD8+ T cells): dose-dependent confirmation screen
Experimental: Compound source plates (REMP-PP#180030) were pre-prepared by adding 500 nl compound solution (5 mmol/l starting concentration) and 11.5 μl Hepes (20 mmol/l) buffer to achieve a final ready to screen concentration of 0.2 mmol/l. Cocultured cell assay plates were prepared by dispensing 20 μl of differentiated MDSC cells (12,500 cells/cavity) and 20 μl of CD8+ T-cells with a MultidropCombi (12,500 cells/cavity). In the next step, 2 μl of pre-prepared compound solution was transferred via BC i5 to the cell plate followed by 3days incubation at 37 °C and 5% CO2. Afterward, the supernatant in cell plates were homogenized via orbital shaking at 2000 rpm for 20s and centrifugated with 1650 rpm for 30 s. On a BC i5 pipetting robot, 2 μl supernatant were transferred to a pre-filled (30 μl PBS) assay plate followed by centrifugation and addition of 8 μl IFNγ HTRF detection kit, followed by orbital mixing at 2000 rpm for 20s and an incubation step for 3 days at 37 °C and 5% CO2. Assay plate was analyzed on an PE Envision. Cell plates were centrifuged in parallel with 300g for 60 s and orbital mixed at 2000 rpm for 20 s followed by proliferation analysis via Sartorius IQue2. Effects were normalized against stimulator control mIL-2 and 0.2% dimethyl sulfoxide (DMSO) as neutral control. A hit was defined as a compound with >50% effect in at least one of the measured effects.
Compound source plates (REMP-PP#180030) for dose-dependent secondary screens were pre-prepared by adding […] compound solution (1.0E + 01 mmol/l, 3.2E + 00 mmol/l, 1.0E + 00 mmol/l, 3.2E-01 mmol/l, 1.0E-01 mmol/l, 3.2E-02 mmol/l, 1.0E-02 mmol/l, 3.2E-03 mmol/l, 1.0E-03 mmol/l, 3.2E-04 mmol/l; starting concentration) and 12 μl Hepes (20 mM) buffer to achieve a final ready to screen concentration of 4.0E-02 mmol/l, 1.3E-02 mmol/l, 4.0E-03 mmol/l, 1.3E-03 mmol/l, 4.0E-04 mmol/l, 1.3E-04 mmol/l, 4.0E-05 mmol/l, 1.3E-05 mmol/l, 4.0E-06 mmol/l, and 1.3E-06 mmol/l. All other steps are identical to the described workflow under “Primary mouse MDSC screen”.
After confirming the physiological and pharmacological suitability of the NUP-MDSC model, we developed a high-throughput screen for the identification of potential MDSC modulators (Fig. 4A and supplemental Fig. S3). To accomplish this, mouse NUP-MDSC were generated as described before, co-cultured with freshly isolated mouse CD8+ T cells, which were activated with anti-CD3/anti-CD28 antibodies, and subsequently treated with compounds or DMSO vehicle (supplemental Fig. S4A). After 72 h, T cell activity was assessed by recording T cell proliferation and IFN-γ secretion. […] Compounds were declared hits if reversing the suppression effect of NUP-MDSC on T cells with ≥50% in either readout resulting in 392 hit compounds (Fig. 4B). […]

Compound | EC50 (Fig. 4D, read-out: T cell proliferation EC50) [µM] | EC50 (read-out: EC50, based on INFγ secretion of secondary mouse screen) [µM] | activity in the NUP-MDSC assay (proliferation and INFγ secretion of mouse CD8+ T cells)
CCOC(=O)c1nnn(-c2nn3nnnc3c3ccccc23)c1C [compound 2] | 6.5 | 2.6 | rescued the proliferation and INFγ secretion
c1ccc2c(c1)c(-n1ccnc1)nn1nnnc21 [compound 3] | – | – | inactive

Source: publication PMC10518717, “High-Throughput Screening and Proteomic Characterization of Compounds Targeting Myeloid-Derived Suppressor Cells” (Molecular & Cellular Proteomics : MCP, 2023)
